“Also recorded” adds a separate entry of the source.
Key:
IL-6 [1] = assay: IL-6 ELISA, LPS-activated J774A.1 macrophages; assay type: cell-based, murine; conditions: J774A.1 cells, LPS 1 μg/ml 24 h
Procedure: (A) J774A.1 macrophages (4×10^5/ml), (B) peritoneal macrophages (4×10^5/ml), and (C) JAWSII dendritic cells (4×10^5/ml) were incubated with compound 1h or DMSO for 30 min followed by stimulating with LPS (1 μg/ml) for 24 h, then IL-6 and TNF-α concentration in culture medium were assayed by ELISA. The data are expressed as the mean±SD for three separate experiments. *, **, and *** indicate a significant difference at the level of p<0.05, p<0.01, p<0.001 respectively compared to LPS group.
(§1) The effects of tested samples on IL-1β, TNF-α and IL-6 production were measured by ELISA according to the manufacturer's instruction. In brief, 50 μl of biotinylated antibody reagent and 50 μl of supernatant were added to an anti-mouse IL-1β, TNF-α and IL-6 precoated stripwell plate, and incubated at room temperature for 2 h. After washing the plate three times with washing buffer, 100 μl of diluted streptavidin-HRP concentrate was added to each well and incubated at room temperature for 30 min. The washing process was repeated; then 100 μl of a premixed tetramethylbenzidine substrate solution was added to each well and developed at room temperature in the dark for 30 min. Following the addition of 100 μl of stop solution to each well to stop the reaction, the absorbance of the plate was measured by a microplate reader at 450 nm wavelength.

IL-1β = IL-1β ELISA, LPS+ATP-activated peritoneal macrophages; assay type: cell-based, C57BL/6 mice; conditions: primary peritoneal macrophages; compound before LPS and ATP
Procedure: (A) J774A.1 macrophages (1×10^6/ml) and (B) peritoneal macrophages (1×10^5/ml) were incubated with compound 1h for 30 min followed by LPS (1 μg/ml) stimulating for 5.5 h, then the cells were stimulated with ATP (5 mM) for an additional 30 min. The IL-1β in the culture medium was measured by ELISA and the expression of active caspase-1 (p10) was measured by Western blot. In (C) and (D), J774A.1 macrophages (1×10^6/ml) were incubated with LPS (1 μg/ml) for 5.5 h, then cells were incubated with compound 1h for 30 min followed by stimulating with ATP (5 mM) for an additional 30 min. The IL-1β and IL-6 in the culture medium were measured by ELISA and the expression of active caspase-1 (p10) was measured by Western blot. In (E), J774A.1 macrophages (1×10^6/ml) were incubated with compound 1h for 30 min followed by LPS (1 μg/ml) stimulating for 6 h. The expression of NLRP3 and proIL-1β were measured by Western blot.
The effects of tested samples on IL-1β, TNF-α and IL-6 production were measured by ELISA according to the manufacturer's instruction. […] Following the addition of 100 μl of stop solution to each well to stop the reaction, the absorbance of the plate was measured by a microplate reader at 450 nm wavelength.

IL-6 [2] = assay: IL-6 ELISA, RAW 264.7 macrophages; assay type: cell-based, murine
Procedure: as §1

ROS = assay: Intracellular ROS production, ATP-activated J774A.1 macrophages; assay type: cell-based, murine
Procedure: In (A), J774A.1 macrophages (1×10^6/ml) were incubated with LPS (1 μg/ml) for 5.5 h and then incubated with compound 1 h ([…]), DPI (100 μM), or DMSO (vehicle) for 30 min followed by ATP (5 mM) stimulating for the indicated time, then ROS levels were measured by detection of the fluorescence intensity of the fluorophore carboxyl-DCF and expressed relative to those at time zero. In (B), J774A.1 macrophages (1×10^6/ml) were incubated with compound 1h (20 μM), DPI (100 μM), or DMSO (vehicle) for 30 min followed by LPS (1 μg/ml) stimulating for 5.5 h, then the cells were stimulated with ATP (5 mM) for the indicated time. The ROS levels were measured by detection of the fluorescence intensity of the fluorophore carboxyl-DCF and expressed relative to those at time zero. In (C), LPS-primed J774A.1 macrophages (1×10^6/ml) were incubated with compound 1h (20 μM) or DMSO (vehicle) for 30 min followed by ATP (5 mM) stimulating for 0-60 min, then the phosphorylation level of PKC-α was analyzed by Western blot.
Intracellular ROS stimulated by LPS was measured by detecting the fluorescence intensity of the 2′,7′-dichlorofluorescein diacetate (H2DCFDA) oxidized product (DCF) (Molecular Probes, Eugene, Oreg.). […]

With `O=c1cc(O)cc(/C=C/C=C/C=C/C=C/c2[nH]ccc2Cl)o1` [Compound 1h] the “secretion of IL-6” value (IL-6 [1]) was “reduced”, the IL-1β inhibition activity (IL-1β) was “confirmed” and the “relative potency in decreasing IL-6 secretion” value (IL-6 [2]; LPS-activated RAW 264.7) was “more potent than 1i and 1n”. The “secretion of IL-6” value (IL-6 [2]; LPS-activated RAW 264.7, LPS 1 μg/ml 24 h) was “decreased production; also recorded: decreased the secretion of IL-6 by LPS-activated RAW 264.7 macrophages in a dose-dependent manner”, the “background level of IL-6” value (IL-6 [2]; compound alone, no LPS, data not shown) was “did not alter” and the “ATP-induced ROS production” value (ROS; J774A.1, compound 1h 20 μM added before LPS priming) was “inhibited ATP-induced ROS production significantly”. For the same compound, the “ATP-induced ROS production” value (ROS; LPS-primed J774A.1, compound 30 min before ATP stimulation) was “reduces ATP-induced ROS production slightly”.

From patent US9475789B2, “Use of polyenylpyrrole derivatives for treating inflammation” (WELLHEAD BIOLOGICAL TECHNOLOGY CORP., priority 2014, dated 2016)
